Source: patent publication US12036196B2, “Compositions and methods for the sustained release of beta-alanine” (Natural Alternatives International, Inc., priority 2005, dated 2024)

Columns and labels:
muscle [1] = details: administering to an individual
Text: The dosing schedule that has been preferred for such administration (i.e., 8 times daily), however, leads to compliance issues and problems with paraesthesia. Thus, there is a need for improved supplements containing free beta-alanine or a biological source thereof in a sustained release formulation to increase compliance and decrease paraesthesia events.
During sustained intensive exercise or exercise sustained under conditions of local hypoxia, the accumulation of hydronium ions formed during glycolysis and the accumulation of lactate due to anaerobic metabolism can severely reduce the intracellular pH. The reduced pH can compromise the function of the creatine-phosphorylcreatine system. The decline in intracellular pH also can affect other functions within the cells such as the function of the contractile proteins in muscle fibers.

[2] = Paraesthesia symptoms, drink versus delayed release capsules (Example 3); type: in vivo, human; details: 1.75 g beta-alanine; two subjects
Text: Two subjects were given 1.75 g beta-alanine dissolved in water (formulated as a drink) or 5 capsules, each containing 0.35 g beta-alanine in a delayed release formulation.

muscle [3] = details: following administration (supplementation); previous work; cited from earlier work
[4] = bolus single dose of 2-6 grams
[5] = Paraesthesia symptoms after ingesting edible gel or beta-alanine dissolved in water (Example 1); type: in vivo, human; details: 2 g beta-alanine ingested; following 20 minutes
Description: To prepare an edible gel containing free beta-alanine the contents of two packets of commercially available strawberry flavored gelatin gel were dissolved in 200 ml of boiling water. The contents were stirred continuously until the gel was completely dissolved. The gel was further fortified with the addition of a sachet of gelatin capsules. To this was added 80 g free beta-alanine (in a final volume of approximately 300 ml). The concentrated gel solution was poured into a 12×12 cm flat mould to a depth of approximately 2 cm and allowed to set to a stiff gel at 4° C. One square piece of gel (approximately 2×2×2 cm in size) contained approximately 2 g of beta-alanine.
In contrast, symptoms of paraesthesia were detected in subjects that ingested 2 g free beta-alanine dissolved in water. Thus the sustained release of free beta-alanine mitigates the symptoms of paraesthesia that are felt when equivalent amounts are administered in a single bolus dose.

- paraesthesia [4]: results in paraesthesia
- symptoms of paraesthesia [5]: detected
Compound: NCCC(=O)O [beta-alanine]
- muscle beta-alanylhistidine peptide levels (muscle [1]): elevated
- total work capacity of the muscle (muscle [1]): increased
- symptoms of paraesthesia [2]: reported symptoms of paraesthesia affecting the face, scalp, neck, arms, hands and buttocks
- carnosine in muscle (muscle [3]): significantly increased
